# Reference: patent US20170252362A1, “METHODS & COMPOUNDS USEFUL IN HEMATOPOIETIC STEM CELL MEDICINE” (ECOLE POLYTECHNIQUE FEDERALE DE LAUSANNE (EPFL), priority 2014, published 2017)
# Key:
# [1] = test system: cultured HSCs; conditions: flow cytometry
# Procedure: NADH autofluorescence was measured by flow cytometry with UV laser (ex: 350 nm, em: 460 nm).
# Specifically, culture conditions that would rapidly differentiate HSCs into highly proliferative MPPs were chosen and the effect of blocking the establishment of ΔΨm on the maintenance of stemness was investigated. For that purpose, trifluorocarbonylcyanide phenylhydrazone (FCCP) which permeabilizes the inner mitochondrial membrane and disrupts its potential was used as an uncoupling agent of the electron transport from ATP generation.
# [2] = test system: whole bone marrow cells; conditions: differentiation conditions, two days with FCCP
# Procedure: (§1) HSCs were cultured under ‘expansion’ conditions in U-bottom 96-well plates for five days. Cultures were maintained in Stemline II (Sigma) supplemented with 10 μg/ml Heparin (Sigma), 100 ng/ml SCF (R&D Systems), 2 ng/ml Flt3 ligand (R&D), 20 ng/ml TPO (R&D Systems), 10 ng/ml FGF-1 (Invitrogen), 500 ng/ml IGFBP2 (R&D Systems), 100 ng/ml AngL-3 (R&D Systems). At the end of the culture period cells were stained with TMRM and analyzed or sorted by flow cytometry. To induce differentiation, HSCs were cultured in basal medium (Stemline II containing 100 ng/ml SCF and 2 ng/ml Flt3 ligand) supplemented with 20 ng/ml IL-3 (R&D Systems) and 100 ng/ml IL-6 (R&D Systems).
# (§2) In a first series of experiments, quantitative clonal differentiation assays (short- and long-term colony forming unit (CFU) assays as described above) were used to test to which extent mitochondrial uncoupling could influence the colony forming behavior and efficiency of hematopoietic stem and progenitor cells (FIG. 4A-C).
# (§3) For some experiments, 5 or 10 μM Carbonyl cyanide 4-(trifluoromethoxy) phenylhydrazone (FCCP) (Sigma) was added at the medium. FCCP stock solution was prepared by dissolving the powder in ethanol at 10 mM concentration.
# [3] = test system: LT-HSC:TMRM^low cells; conditions: 100 LT-HSC:TMRM^low cells, two days differentiation conditions with FCCP
# Procedure: as §1, §2, §3
# [4] = test system: LT-HSC:TMRM^low cells; conditions: five days differentiation condition (SCF, Flt3, IL-3, IL-6), 5 μM FCCP, progeny transplanted
# Procedure: 100 LT-HSC:TMRM^low cells were cultured for five days under differentiation-inducing conditions in the presence or absence of 5 μM FCCP. Cell progeny were transplanted in lethally irradiated recipient mice together with 2*10^6 helper cells. Peripheral blood was collected at 4, 8 and 12 and 16 weeks to determine the level of chimerism as described above.
# For transplants of HSC cultured exposed to the uncoupler FCCP, 100 LT-HSC:TMRM^low cells were cultured for five days under differentiation-inducing conditions in the presence or absence of 5 μM FCCP. Cell progeny were transplanted in lethally irradiated recipient mice together with 2*10^6 helper cells. Peripheral blood was collected at 4, 8 and 12 weeks to determine the level of chimerism.
# [5] = test system: HSCs; conditions: CFSE labeling, culture with FCCP
# Procedure: Freshly sorted LT-HSCs were incubated for 20 min at 37° C. with 1:400 CFSE stock solution (Cayman chemicals; CFSE cell division assay kit). The cells were pelleted and re-suspended in 1 ml of Stemline II (Sigma) containing 10% FBS for 20 min at 37° C. Thereafter, the cells were washed twice with 1 ml of Stemline II (Sigma) and put in culture.
# [6] = test system: hematopoietic stem and progenitor pool sizes in the bone marrow; test: Flow cytometry analysis of hematopoietic stem and progenitor pool sizes in bone marrow of mice fed the agent; assay type: in vivo, mouse; conditions: 1 week treatment through the food, flow cytometry
# Procedure: Bone marrow (BM) cells were isolated from C57Bl/6J and C57Bl/6J Ly5.1 from crushed femora and tibia. Flow cytometry analysis of hematopoietic stem and progenitor cells was performed on freshly isolated bone marrow (BM). Cell suspensions were filtered through a 70 μm cell strainer and erythroid cells were eliminated by incubation with red blood cells lysis buffer (eBioscences). Lineage-positive cells were removed with a magnetic lineage depletion kit (Miltenyi Biotech). Cell suspensions were stained with a panel of specific antibodies for stem and progenitor cells and analyzed or FACS-sorted respectively on a BD LSRII and BD FACS Aria II.
# C57Bl/6J and C57Bl/6J Ly5.1 were purchased from Charles River Laboratories International and maintained in micro-isolator cages. Mice were provided continuously with sterile food, water and bedding. Nicotinamide riboside (NR) (custom synthesized as triflate salt by Novalix in Strasbourg) was supplied in the food at 0.4 g/Kg mouse and mice were treated for 1 and 4 weeks respectively.
# [7] = Konieczna et al., 2013; cited from earlier work
# [8] = test system: HSC mitochondrial activity; test: In vivo assay of HSC mitochondrial activity: TMRM flow cytometry of freshly isolated HSC from mice fed the compounds; set-up: species or system mouse; conditions: mice fed with the compounds
# From the text: The effect of agents on HSC mitochondrial activity has been assessed by measuring mitochondrial activity in vivo: freshly isolated HSC from mice fed with the compounds were stained by TMRM and analyzed by flow cytometry.
SMILES,NADH levels [1],total number of colonies ([2]; 15'000 whole bone marrow cells),percentage of clonogenic multi-lineage colonies (CFU-GEMMs) ([2]; whole bone marrow cells),"percentage of colonies derived from more committed progenitors (M, GM) ([2]; whole bone marrow cells)",colonies derived from the most primitive cells (CFU-GEMM) [3],"frequency of colonies derived from the more committed progenitors (Mk, G, M and GM) [3]",long-term multilineage blood reconstitution in recipient mice [4],divisional history (induction of quiescence) [5],hematopoietic stem and progenitor compartments in BM [6],platelet levels in mice [7],ability to reduce mitochondrial membrane potential in HSCs [8]
"N#CC(C#N)=NNc1ccc(OC(F)(F)F)cc1 [FCCP, Carbonyl cyanide 4-(trifluoromethoxy)phenylhydrazone]",decreased NADH levels,striking decrease in the total number of colonies,increase in the percentage of clonogenic multi-lineage colonies,markedly decreased,concomitant increase,striking decrease in the frequency of colonies,dramatically higher levels of long-term multilineage blood reconstitution,all cells in culture are rapidly dividing several times,,,
"NC(=O)c1cccnc1 [NAM, Nicotinamide]",,,,,,,,,did not show significant expansion,did not increase the platelet levels,not able to significantly reduce mitochondrial membrane potential in HSCs
